Patent publication US12421212B2, “Substituted benzenecarboxamides as IL-17A modulators” (DiCE Alpha, Inc., priority 2019, dated 2025)

Target: T1, IL-17A/A (Homo sapiens, UniProt Q16552)
T1 construct: purchased Genscript Z03228
T1 sequence (Q16552 24-155): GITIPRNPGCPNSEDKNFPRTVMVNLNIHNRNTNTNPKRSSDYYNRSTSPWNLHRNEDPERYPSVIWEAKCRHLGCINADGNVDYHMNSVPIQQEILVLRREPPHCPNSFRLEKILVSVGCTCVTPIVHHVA
Test: IL-17A/A HEK-Blue Cell Assay
Assay type: cell-based
Conditions: HEK-Blue IL-17A reporter cell line, SEAP readout at A630, 20 hours incubation with IL-17A/A; top concentration 10 uM, 1 uM or 0.3 uM

With `CC(C)n1nccc1C(=O)N[C@H](C(=O)Nc1ccc([C@H](C)[C@@H](NC(=O)NC2CC2)C(=O)N2CCNCC2)cc1F)C1CCCCC1` [Compound 315] the “IL-17A/A inhibition (pIC50)” value was “A (compounds having a pIC50 of greater than or equal 8 as A)”.

Same assay, conditions: HEK-Blue IL-17A reporter cell line, SEAP readout at A630, 20 hours incubation with IL-17A/A; top concentration 10 uM, 1 uM or 0.3 uM; read-out: IL-17A/A inhibition (pIC50) (converted)

`CCC(=O)N[C@@H](C(=O)N1CCN(C)CC1)[C@@H](C)c1ccc(NC(=O)[C@@H](NC(=O)C(F)(F)c2cccc(C#N)c2)[C@H]2CC[C@H](C(F)(F)F)CC2)c(F)c1` [Compound 286] and `CCC(=O)N[C@@H](C(=O)N1CCN(C)CC1)[C@@H](C)c1ccc(NC(=O)C(NC(=O)C(F)(F)c2cccc(C#N)c2)C2CCCC2)c(F)c1` (some centres unmarked) [Compound 292] fall in the same range of IC50: 10 to 100 nM for the first, 10 to 100 nM for the second.

Compared with `CCC(=O)N[C@@H](C(=O)N1CCN(C)CC1)[C@@H](C)c1ccc(NC(=O)C(NC(=O)c2conc2CC)C2CCc3ccccc32)c(F)c1` (some centres unmarked) [Compound 287], `CCC(=O)N[C@@H](C(=O)N1CCN(C)CC1)[C@@H](C)c1ccc(NC(=O)[C@@H](NC(=O)c2conc2CC)C2CCCCC2)cc1` [Compound 298] is higher in IC50: < 10 nM for the first, 10 to 100 nM for the second.

`CCC(=O)N[C@@H](C(=O)N1CCN(C)CC1)[C@@H](C)c1ccc(NC(=O)C(NC(=O)c2ccnn2CC)[C@H](C)c2ccccc2)c(F)c1` (some centres unmarked) [Compound 288] and `CCC(=O)N[C@@H](C(=O)N1CCN(C)CC1)[C@@H](C)c1ccc(NC(=O)C(NC(=O)c2ccnn2CC)[C@@H](C)c2ccccc2)c(F)c1` (some centres unmarked) [Compound 289] fall in the same range of IC50: 10 to 100 nM for the first, 10 to 100 nM for the second.

First: CCC(=O)N[C@@H](C(=O)N1CCN(C)CC1)[C@@H](C)c1ccc(NC(=O)C(NC(=O)C(F)(F)c2cccc(C#N)c2)[C@@H](C)c2ccccc2)c(F)c1 (some centres unmarked) [Compound 290]
Second: CCC(=O)N[C@@H](C(=O)N1CCN(C)CC1)[C@@H](C)c1ccc(NC(=O)C(NC(=O)c2ccnn2C(C)C)[C@@H](C)c2ccccc2)c(F)c1 (some centres unmarked) [Compound 291]
The IC50 of the first is lower: < 10 nM for the first, 10 to 100 nM for the second.

`CCC(=O)N[C@@H](C(=O)N1CCN(C)CC1)[C@@H](C)c1ccc(NC(=O)C(NC(=O)c2ccnn2CC)C(CC)c2ccccc2)c(F)c1` (some centres unmarked) [Compound 293] and `CCC(=O)N[C@@H](C(=O)N1CCN(C)CC1)[C@@H](C)c1ccc(NC(=O)[C@@H](NC(=O)c2ccnn2CC)C2CCC(C)(C)CC2)c(F)c1` [Compound 296] fall in the same range of IC50: 10 to 100 nM for the first, 10 to 100 nM for the second.

`CCC(=O)N[C@@H](C(=O)N1CCN(C)CC1)[C@@H](C)c1ccc(NC(=O)[C@@H](NC(=O)C(F)(F)c2ccc(OC)nc2)[C@H]2CC[C@H](C)CC2)c(F)c1` [Compound 295] and `COc1ccc(C(F)(F)C(=O)N[C@H](C(=O)Nc2ccc([C@H](C)[C@@H](NC(=O)c3cnns3)C(=O)N3CCN(C)CC3)cc2F)C2CCCCCC2)cn1` [Compound 331] cannot be ordered by IC50: < 10 nM for the first, < 10 nM for the second.

`CCC(=O)N[C@@H](C(=O)N1CCN(C)CC1)[C@@H](C)c1ccc(NC(=O)[C@@H](NC(=O)c2ccnn2CC)C2CCCCCC2)cc1` [Compound 297] and `CCC(=O)N[C@@H](C(=O)N1CCN(C)CC1)[C@@H](CC)c1ccc(NC(=O)[C@@H](NC(=O)c2ccnn2CC)C2CCCCCC2)cc1` [Compound 319] fall in the same range of IC50: 10 to 100 nM for the first, 10 to 100 nM for the second.

`CCC(=O)N[C@@H](C(=O)N1CCN(C)CC1)[C@@H](C)c1ccc(NC(=O)[C@@H](NC(=O)c2ccnn2CC)[C@H]2CC[C@H](C)CC2)cc1` [Compound 299] and `CCn1nccc1C(=O)N[C@H](C(=O)Nc1ccc([C@H](C)[C@@H](NC(=O)CC2CC2)C(=O)N2CCN(C)CC2)cc1F)C1CCCCC1` [Compound 307] fall in the same range of IC50: 10 to 100 nM for the first, 10 to 100 nM for the second.

Compared with `CCC(=O)N[C@@H](C(=O)N1CCN(C)CC1)[C@@H](C)c1ccc(NC(=O)[C@@H](NC(=O)C(F)(F)c2cccc(C#N)c2)C2CCCCC2)cc1` [Compound 300], `C[C@@H](c1ccc(NC(=O)[C@@H](NC(=O)C(F)(F)c2cccc(C#N)c2)C2CCCCC2)cc1)[C@@H](NC(=O)c1cnns1)C(=O)N1CCN(C)CC1` [Compound 301] is lower in IC50: 10 to 100 nM for the first, < 10 nM for the second.

`CCC(=O)N[C@H](Cc1ccc(NC(=O)[C@@H](NC(=O)C(F)(F)c2cccc(C#N)c2)C2CCCCC2)c(F)c1)C(=O)N1CCN(C)CC1` [Compound 302] and `CNC(=O)N[C@@H](C(=O)N1CCN(C)CC1)[C@@H](C)c1ccc(NC(=O)[C@@H](NC(=O)C(F)(F)c2cccc(C#N)c2)C2CCCCC2)c(F)c1` [Compound 317] fall in the same range of IC50: 10 to 100 nM for the first, 10 to 100 nM for the second.

`CCn1nccc1C(=O)N[C@H](C(=O)Nc1ccc([C@H](C)[C@@H](NC(=O)c2cncs2)C(=O)N2CCN(C)CC2)cc1F)C1CCCCC1` [Compound 303] and `CCn1nccc1C(=O)N[C@H](C(=O)Nc1ccc([C@H](C)[C@@H](NC(=O)c2cccs2)C(=O)N2CCN(C)CC2)cc1F)C1CCCCC1` [Compound 304] fall in the same range of IC50: 10 to 100 nM for the first, 10 to 100 nM for the second.

`CCn1nccc1C(=O)N[C@H](C(=O)Nc1ccc([C@H](C)[C@@H](NC(=O)c2cnsc2)C(=O)N2CCN(C)CC2)cc1F)C1CCCCC1` [Compound 305] and `CCn1nccc1C(=O)N[C@H](C(=O)Nc1ccc([C@H](C)[C@@H](NC(=O)c2cnns2)C(=O)N2CCN(C)CC2)cc1F)C1CCCCC1` [Compound 310] fall in the same range of IC50: 10 to 100 nM for the first, 10 to 100 nM for the second.

Compared with `CCn1nccc1C(=O)N[C@H](C(=O)Nc1ccc([C@H](C)[C@@H](NC(=O)c2cnnn2C)C(=O)N2CCN(C)CC2)cc1F)C1CCCCC1` [Compound 306], `CCn1nccc1C(=O)N[C@H](C(=O)Nc1ccc([C@H](C)[C@@H](NC(=O)c2cnns2)C(=O)N2CCN(C)CC2)cc1F)C1CCCCCC1` [Compound 337] is lower in IC50: 10 to 100 nM for the first, < 10 nM for the second.

`C[C@@H](c1ccc(NC(=O)[C@@H](NC(=O)C(F)(F)c2cccc(C#N)c2)C2CCCCC2)c(F)c1)[C@@H](NC(=O)CC1CC1)C(=O)N1CCN(C)CC1` [Compound 308] and `C[C@@H](c1ccc(NC(=O)[C@@H](NC(=O)C(F)(F)c2cccc(C#N)c2)C2CCCCC2)c(F)c1)[C@@H](NC(=O)NC1CC1)C(=O)N1CCN(C)CC1` [Compound 316] cannot be ordered by IC50: < 10 nM for the first, < 10 nM for the second.

First: COc1cncc(C(F)(F)C(=O)N[C@H](C(=O)Nc2ccc([C@H](C)[C@@H](NC(=O)c3cnns3)C(=O)N3CCN(C)CC3)cc2F)C2CCCCC2)c1 [Compound 309]
Second: C[C@@H](c1ccc(NC(=O)[C@@H](NC(=O)C(F)(F)c2cncc(C#N)c2)C2CCCCCC2)c(F)c1)[C@@H](NC(=O)c1cnns1)C(=O)N1CCN(C)CC1 [Compound 335]
The IC50 of the first is higher: 10 to 100 nM for the first, < 10 nM for the second.

`C[C@@H](c1ccc(NC(=O)[C@@H](NC(=O)C(F)(F)c2cccc(C#N)c2)C2CCCCC2)c(F)c1)[C@@H](NC(=O)c1cnns1)C(=O)N1CCN(C)CC1` [Compound 311] and `CC1CCC(C(NC(=O)C(F)(F)c2cccc(C#N)c2)C(=O)Nc2ccc(C(C)C(NC(=O)c3cnns3)C(=O)N3CCN(C)CC3)cc2F)CC1` (centres unmarked) [Compound 336] cannot be ordered by IC50: < 10 nM for the first, < 10 nM for the second.

`CC(C)n1nccc1C(=O)N[C@H](C(=O)Nc1ccc([C@H](C)[C@@H](NC(=O)c2cnns2)C(=O)N2CCN(C)CC2)cc1F)C1CCCCC1` [Compound 312] and `CC(C)n1nccc1C(=O)N[C@H](C(=O)Nc1ccc([C@H](C)[C@@H](NC(=O)c2cnns2)C(=O)N2CCN(C)CC2)cc1F)C1CCCCCC1` [Compound 332] cannot be ordered by IC50: < 10 nM for the first, < 10 nM for the second.

`CCn1nccc1C(=O)N[C@H](C(=O)Nc1ccc([C@H](C)[C@@H](NS(=O)(=O)CC)C(=O)N2CCN(C)CC2)cc1F)C1CCCCC1` [Compound 313] and `CCn1nccc1C(=O)N[C@H](C(=O)Nc1ccc([C@H](C)[C@@H](NC(=O)NC(C)C)C(=O)N2CCN(C)CC2)cc1F)C1CCCCCC1` [Compound 327] fall in the same range of IC50: 10 to 100 nM for the first, 10 to 100 nM for the second.

`CCn1nccc1C(=O)N[C@H](C(=O)Nc1ccc([C@H](C)[C@@H](NC(=O)NC2CC2)C(=O)N2CCN(C)CC2)cc1F)C1CCCCC1` [Compound 314] and `CCn1nccc1C(=O)N[C@H](C(=O)Nc1ccc([C@H](C)[C@@H](NC(=O)C2(F)CC2)C(=O)N2CCN(C)CC2)cc1F)C1CCCCCC1` [Compound 326] fall in the same range of IC50: 10 to 100 nM for the first, 10 to 100 nM for the second.

`C[C@@H](c1ccc(NC(=O)[C@@H](NC(=O)C(F)(F)c2cccc(C#N)c2)C2CCCCC2)c(F)c1)[C@@H](NC(=O)NC1CCC1)C(=O)N1CCN(C)CC1` [Compound 318] and `CC(C)NC(=O)N[C@@H](C(=O)N1CCN(C)CC1)[C@@H](C)c1ccc(NC(=O)[C@@H](NC(=O)c2ccnn2C(C)C)C2CCCCCC2)c(F)c1` [Compound 328] fall in the same range of IC50: 10 to 100 nM for the first, 10 to 100 nM for the second.

`CCn1nccc1C(=O)N[C@H](C(=O)Nc1ccc(C[C@@H](Nc2ncnc3cnccc23)C(=O)N2CCN(C)CC2)cc1F)C1CCCCC1` [Compound 320] and `CCn1nccc1C(=O)N[C@H](C(=O)Nc1ccc(C[C@@H](NC(=O)c2cnns2)C(=O)N2CCN(C)CC2)cc1F)C1CCCCC1` [Compound 322] fall in the same range of IC50: 10 to 100 nM for the first, 10 to 100 nM for the second.

`CCn1nccc1C(=O)N[C@H](C(=O)Nc1ccc(C[C@@H](NC(=O)c2ccnn2C2CCN(C)CC2)C(=O)N2CCN(C)CC2)cc1F)C1CCCCC1` [Compound 321] and `CCC(=O)N[C@H](Cc1ccc(NC(=O)[C@@H](NC(=O)c2ccnn2CC)C2CCCCC2)c(F)c1)C(=O)N1CCN(Cc2ccccc2)CC1` [Compound 325] fall in the same range of IC50: 10 to 100 nM for the first, 10 to 100 nM for the second.

`COc1ccc(C(F)(F)C(=O)N[C@H](C(=O)Nc2ccc(C[C@@H](NC(=O)c3cnns3)C(=O)N3CCN(C)CC3)cc2F)C2CCCCC2)cn1` [Compound 323] and `COc1cncc(C(F)(F)C(=O)N[C@H](C(=O)Nc2ccc(C[C@@H](NC(=O)c3cnns3)C(=O)N3CCN(C)CC3)cc2F)C2CCCCC2)c1` [Compound 324] fall in the same range of IC50: 10 to 100 nM for the first, 10 to 100 nM for the second.

`CC(C)n1nccc1C(=O)N[C@H](C(=O)Nc1ccc([C@H](C)[C@@H](NC(=O)c2ccnn2CC2CC2)C(=O)N2CCN(C)CC2)cc1F)[C@H]1CC[C@H](C)CC1` [Compound 329] and `CC(C)n1nccc1C(=O)N[C@@H](C(=O)N1CCN(C)CC1)[C@@H](C)c1ccc(NC(=O)[C@@H](NC(=O)c2ccnn2C(C)C)[C@H]2CC[C@H](C)CC2)c(F)c1` [Compound 330] cannot be ordered by IC50: < 10 nM for the first, < 10 nM for the second.

In the case of `CC(C)n1nccc1C(=O)N[C@H](C(=O)Nc1ccc([C@H](C)[C@@H](NC(=O)c2cnns2)C(=O)N2CCN(C)CC2)cc1F)[C@H]1CC[C@H](C)CC1` [Compound 333], the IC50 was < 10 nM.
